From US10556860B2, “hTERT modulators and methods of use” (Arizona Board of Regents on Behalf of the University of …, priority 2015, dated 2020)

Assays:
[1] = tested on: G146A mutant hTERT G-quadruplex; assay: CD melting (Tm), G146A mutant; format: binding, human; conditions: 2 equiv
Experimental: Circular dichroism. Oligomers of WT, G124A, G124/125A, G138/139A and G146A were synthesized and HPSF-purified by MGW Operon, Inc. For CD analysis, oligomers (5 μM) in a buffer containing 10 mM Tris-HCl (pH 7.5) and 140 mM KCl were annealed. For the CD analysis of the complex of oligomers and compounds, oligomers (5 μM) in a buffer containing 10 mM Tris-HCl (pH 7.5) and 5 mM KCl for GTC365 or 1 mM KCl for BRACO-19 were annealed. Oligomers and GTC365 or BRACO-19 were incubated overnight at room temperature. For the full-length of C-rich strand, the oligomer in a buffer of 10 mM Na cacodylate (pH 6.6) was annealed and then incubated with GTC365 overnight. CD analysis was conducted on a Jasco 810 spectropolarimeter (Jasco, Easton, Md.) using a quartz cell with 1 mm of path length, 1 nm of band width, and 1 s of response time for spectra at 20° C. Melting curves for the determination of Tm were obtained by recording ellipticity at 262 nm with increasing temperatures from 25° C. to 95° C. at a rate of 1.6° C./min. Tm of the C-rich strand with GTC365 was obtained from the CD signal at 286 nm within 10-60° C.
CD and DMS footprinting analyses were conducted to characterize the binding of GTC365 and BRACO-19 to the 5-12 G-quadruplex. […] To verify the effects of compounds on the thermal stability of the WT and the mutant G-quadruplexes, Tms were determined by CD. […]

[2] = target: G146A 5-12 G-quadruplex of hTERT core promoter; assay: FRET assay for Kd, G146A probe; format: binding, human
Experimental: (§1) FRET assay for compound screening and determination of Kd value. FRET probes of WT, G124/125A, and G146A of the 5-12 G-quadruplex were synthesized and labeled with FAM (Ex. 490 nm/Em. 520 nm) and TAMRA (Ex. 560 nm/Em. 580 nm) at each end by MGW Operon Inc. The WT probe (50 nM) was annealed in a buffer containing 10 mM Tris-HCl (pH 7.5) and 5 mM KCl by heating at 95° C. for 5 min and slowly cooling to room temperature. Compounds (50 μM) and probe were incubated for 1 h at room temperature. The same volume of DMSO served as a control. For Kd value determination, the WT, G124/125A, and G146A probes were annealed, and then several concentrations of compound were treated for 1 h at room temperature. Dose-dependent fluorescence intensity at 520 nm was measured by a microplate reader (BioTek Synergy HT). The data were corrected with the blank signal of buffer and compound. The relative fluorescence intensity compared to DMSO was used for binding curve fitting to determine Kd value using GraphPad Prism software.
(§2) The hTERT core promoter region includes 12 runs of consecutive guanines that form two G-quadruplexes in tandem on the G-rich strand. […] When the G-quadruplex is folded, two fluorophores are in proximity, which leads to a decrease in FAM fluorescence. […]

[3] = target: WT 5-12 G-quadruplex of hTERT core promoter (FAM/TAMRA probe); assay: FRET assay for compound screening and Kd, WT probe; format: binding, human
Experimental: as §1, §2

[4] = tested on: BCL2 mRNA in WT and G146A melanoma cells; assay: qPCR of BCL2 mRNA in melanoma cells; format: cell-based, human; conditions: 72 h
Experimental: Cell cultures. MCF7 and melanoma (UACC 383) cells were cultured in media of RPMI-1640 with 10% FBS and 1% penicillin/streptomycin. For melanoma cells UACC 2512, UACC 3090, UACC 1729, and UACC 2528, 20% FBS was included in the RPMI media instead of 10% FBS. Cells were incubated at 37° C. with 5% CO2.
qPCR. MCF7 and melanoma cells were treated with GTC365 and BRACO-19 for 72 h. Total RNA was extracted using an RNeasy mini-prep kit (Qiagen) and quantitated by measuring absorbance at 260 nm. cDNA was synthesized using a Takara PrimeScript™ RT Reagent Kit with gDNA eraser and then used as a template for qPCR. The qPCR was performed using Kapa Probe Fast qPCR Master Mix with ABI Taqman probes of hTERT (Hs00972656_m1), BCL2 (HS00608023_m1, FAM-labeled) or MYC (Hs00153408_m1), and GAPDH (Hs02758991_g1, VIC-labeled). The Ct values were measured by running Rotor-Gene Q, and the relative quantity of hTERT, BCL2, and MYC mRNA was obtained compared to GAPDH as an internal control.
To determine the cellular effect of GTC365 on proliferation as well as suppression of the activation of hTERT by G124A, G124/125A, G138/139A, and G146A mutants, melanoma cell lines were used alongside a WT cell line. All mutants increased the mRNA level of hTERT, compared to WT melanoma cells, in the 6.6-34-fold range. […]

[5] = target: G124/125A 5-12 G-quadruplex of hTERT core promoter; assay: FRET assay for Kd, G124/125A probe; format: binding, human
Experimental: as §1, §2

## N=C(N)NCCCS(=O)(=O)Nc1ccc(Nc2c3ccccc3nc3cc([N+](=O)[O-])ccc23)cc1 [GTC365]
[1]
  Tm more increased compared to the WT: 6-7 °C
[2]
  Kd value higher than WT and G124/125A: 1.5 fold
[3]; WT probe, FAM- and TAMRA-labeled oligomer
  Kd: ~0.4 µM
[3]; compounds 50 μM, WT probe 50 nM, 10 mM Tris-HCl, 5 mM KCl, 1 h
  reduction of fluorescence intensity (FRET): 94%
[4]
  mRNA level of BCL2: decreased
[5]
  Kd: ~0.4 µM
